Laboratory results: PubChem BioAssay AID1963847 (Molecular Pharmacology Branch, DTP, NCI, 2024)
pIC50: −log10 of the molar value.

Test system: 415267-285-R-J2-PDC complex spheroid viability
Experiment: Anticancer human tumor 415267-285-R-J2-PDC patient-derived breast carcinoma cell line growth inhibition [POLQ]
Settings: for pIC50: curve of first compound; for viability, T/C: stronger effect = lower value
In short: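 Complex spheroid viability model combining PDC tumour cells with endothelial (HUVEC) and MSC stromal cells. Novobiocin, ART-558 or RP6685 were tested singly and in combination with standard and investigational anticancer drugs. Each was titrated in half-log steps from near clinical Cmax, or from 10 microM where Cmax was unknown.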

[1] = second compound 0.0316 µM, first compound 0.00316 µM
[2] = second compound 0.0316 µM, first compound 0.01 µM
[3] = second compound 0.0316 µM, first compound 0.0316 µM
[4] = second compound 0.0316 µM, first compound 0.1 µM
[5] = second compound 0.1 µM, first compound 0.00316 µM
[6] = second compound 0.1 µM, first compound 0.01 µM
[7] = second compound 0.1 µM, first compound 0.0316 µM
[8] = second compound 0.1 µM, first compound 0.1 µM
[9] = second compound 0.316 µM, first compound 0.00316 µM
[10] = second compound 0.316 µM, first compound 0.01 µM
[11] = second compound 0.316 µM, first compound 0.0316 µM
[12] = second compound 0.316 µM, first compound 0.1 µM
[13] = second compound 1 µM, first compound 0.00316 µM
[14] = second compound 1 µM, first compound 0.01 µM
[15] = second compound 1 µM, first compound 0.0316 µM
[16] = second compound 1 µM, first compound 0.1 µM
[17] = second compound 3.16 µM, first compound 0.00316 µM
[18] = second compound 3.16 µM, first compound 0.01 µM
[19] = second compound 3.16 µM, first compound 0.0316 µM
[20] = second compound 3.16 µM, first compound 0.1 µM
[21] = second compound 10 µM, first compound 0.00316 µM
[22] = second compound 10 µM, first compound 0.01 µM
[23] = second compound 10 µM, first compound 0.0316 µM
[24] = second compound 10 µM, first compound 0.1 µM
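Also: spheroids exposed to compounds for one week before readout.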
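For viability, T/C in this document: luminescence used as stand-in measure of viable cells; 100% = DMSO vehicle control viability.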

COc1cccc(OCCCN)c1-c1cc(Nc2cnc(C#N)cn2)n[nH]1 + COC1C(OC(N)=O)C(O)C(Oc2ccc3c(O)c(NC(=O)c4ccc(O)c(CC=C(C)C)c4)c(=O)oc3c2C)OC1(C)C
pIC50 (second compound 0.0316 µM): > 8.50 | pIC50 (second compound 0.1 µM): > 8.50 | pIC50 (second compound 0.316 µM): > 8.50 | pIC50 (second compound 1 µM): 8.43 | pIC50 (second compound 3.16 µM): 8.44 | pIC50 (second compound 10 µM): 8.42 | viability, T/C [1]: 41.4% | viability, T/C [2]: 14.1% | viability, T/C [3]: 7.52% | viability, T/C [4]: 8.68% | viability, T/C (second compound 0.0316 µM, first compound 0.316 µM): 6.7% | viability, T/C (second compound 0.0316 µM, first compound 1 µM): 4.81% | viability, T/C [5]: 40.2% | viability, T/C [6]: 10.2% | viability, T/C [7]: 7.65% | viability, T/C [8]: 6.8% | viability, T/C (second compound 0.1 µM, first compound 0.316 µM): 6.5% | viability, T/C (second compound 0.1 µM, first compound 1 µM): 5.69% | viability, T/C [9]: 46.9% | viability, T/C [10]: 8.13% | viability, T/C [11]: 8.41% | viability, T/C [12]: 6.89% | viability, T/C (second compound 0.316 µM, first compound 0.316 µM): 7.31% | viability, T/C (second compound 0.316 µM, first compound 1 µM): 4.55% | viability, T/C [13]: 56.2% | viability, T/C [14]: 9.03% | viability, T/C [15]: 7.11% | viability, T/C [16]: 7.02% | viability, T/C (second compound 1 µM, first compound 0.316 µM): 5.8% | viability, T/C (second compound 1 µM, first compound 1 µM): 4.41% | viability, T/C [17]: 55.3% | viability, T/C [18]: 8.65% | viability, T/C [19]: 7.11% | viability, T/C [20]: 7.79% | viability, T/C (second compound 3.16 µM, first compound 0.316 µM): 5.22% | viability, T/C (second compound 3.16 µM, first compound 1 µM): 5.51% | viability, T/C [21]: 58.6% | viability, T/C [22]: 7.45% | viability, T/C [23]: 7.04% | viability, T/C [24]: 6.59% | viability, T/C (second compound 10 µM, first compound 0.316 µM): 6.37% | viability, T/C (second compound 10 µM, first compound 1 µM): 5.49%

Cn1ncnc1[C@H]1c2n[nH]c(=O)c3cc(F)cc(c23)N[C@@H]1c1ccc(F)cc1 + COC1C(OC(N)=O)C(O)C(Oc2ccc3c(O)c(NC(=O)c4ccc(O)c(CC=C(C)C)c4)c(=O)oc3c2C)OC1(C)C
pIC50 (second compound 0.0316 µM): < 7.00 | pIC50 (second compound 0.1 µM): < 7.00 | pIC50 (second compound 0.316 µM): < 7.00 | pIC50 (second compound 1 µM): < 7.00 | pIC50 (second compound 3.16 µM): < 7.00 | pIC50 (second compound 10 µM): < 7.00 | viability, T/C (second compound 0.0316 µM, first compound 0.000316 µM): 102% | viability, T/C (second compound 0.0316 µM, first compound 0.001 µM): 98.6% | viability, T/C [1]: 113% | viability, T/C [2]: 101% | viability, T/C [3]: 107% | viability, T/C [4]: 93% | viability, T/C (second compound 0.1 µM, first compound 0.000316 µM): 105% | viability, T/C (second compound 0.1 µM, first compound 0.001 µM): 99.3% | viability, T/C [5]: 101% | viability, T/C [6]: 103% | viability, T/C [7]: 97.8% | viability, T/C [8]: 106% | viability, T/C (second compound 0.316 µM, first compound 0.000316 µM): 112% | viability, T/C (second compound 0.316 µM, first compound 0.001 µM): 99.6% | viability, T/C [9]: 94.2% | viability, T/C [10]: 106% | viability, T/C [11]: 107% | viability, T/C [12]: 104% | viability, T/C (second compound 1 µM, first compound 0.000316 µM): 97.6% | viability, T/C (second compound 1 µM, first compound 0.001 µM): 93.3% | viability, T/C [13]: 94.8% | viability, T/C [14]: 97.9% | viability, T/C [15]: 109% | viability, T/C [16]: 105% | viability, T/C (second compound 3.16 µM, first compound 0.000316 µM): 89.6% | viability, T/C (second compound 3.16 µM, first compound 0.001 µM): 92.9% | viability, T/C [17]: 95.4% | viability, T/C [18]: 105% | viability, T/C [19]: 109% | viability, T/C [20]: 103% | viability, T/C (second compound 10 µM, first compound 0.000316 µM): 105% | viability, T/C (second compound 10 µM, first compound 0.001 µM): 101% | viability, T/C [21]: 101% | viability, T/C [22]: 96.3% | viability, T/C [23]: 102% | viability, T/C [24]: 96.1%
